One data set addresses human Nav 1.5 (Homo sapiens (Human), UniProt Q14524). Description: Nav 1.5 IonWorks Quattro (IWQ) in vitro assay. It is filed as cell-based. Background: Patch clamp records ionic current or voltage across a cell membrane.
A further data set addresses human Nav1.7 (Homo sapiens (Human), UniProt Q15858). Kind of data set: Nav 1.7 in vitro PatchXpress (PX) assay. It is filed as cell-based.
Where [1] appears, read: in-vitro Nav 1.5 IWQ data, read-out: NAV 1.5 IWQ (IC50).

Where two headings read alike, the source gives them in different places.

The record followed here is patent US9663508B2, “Biaryl acyl-sulfonamide compounds as sodium channel inhibitors” (AMGEN INC., priority 2013, dated 2017).

Sequence of human Nav1.7 (Q15858 whole entry): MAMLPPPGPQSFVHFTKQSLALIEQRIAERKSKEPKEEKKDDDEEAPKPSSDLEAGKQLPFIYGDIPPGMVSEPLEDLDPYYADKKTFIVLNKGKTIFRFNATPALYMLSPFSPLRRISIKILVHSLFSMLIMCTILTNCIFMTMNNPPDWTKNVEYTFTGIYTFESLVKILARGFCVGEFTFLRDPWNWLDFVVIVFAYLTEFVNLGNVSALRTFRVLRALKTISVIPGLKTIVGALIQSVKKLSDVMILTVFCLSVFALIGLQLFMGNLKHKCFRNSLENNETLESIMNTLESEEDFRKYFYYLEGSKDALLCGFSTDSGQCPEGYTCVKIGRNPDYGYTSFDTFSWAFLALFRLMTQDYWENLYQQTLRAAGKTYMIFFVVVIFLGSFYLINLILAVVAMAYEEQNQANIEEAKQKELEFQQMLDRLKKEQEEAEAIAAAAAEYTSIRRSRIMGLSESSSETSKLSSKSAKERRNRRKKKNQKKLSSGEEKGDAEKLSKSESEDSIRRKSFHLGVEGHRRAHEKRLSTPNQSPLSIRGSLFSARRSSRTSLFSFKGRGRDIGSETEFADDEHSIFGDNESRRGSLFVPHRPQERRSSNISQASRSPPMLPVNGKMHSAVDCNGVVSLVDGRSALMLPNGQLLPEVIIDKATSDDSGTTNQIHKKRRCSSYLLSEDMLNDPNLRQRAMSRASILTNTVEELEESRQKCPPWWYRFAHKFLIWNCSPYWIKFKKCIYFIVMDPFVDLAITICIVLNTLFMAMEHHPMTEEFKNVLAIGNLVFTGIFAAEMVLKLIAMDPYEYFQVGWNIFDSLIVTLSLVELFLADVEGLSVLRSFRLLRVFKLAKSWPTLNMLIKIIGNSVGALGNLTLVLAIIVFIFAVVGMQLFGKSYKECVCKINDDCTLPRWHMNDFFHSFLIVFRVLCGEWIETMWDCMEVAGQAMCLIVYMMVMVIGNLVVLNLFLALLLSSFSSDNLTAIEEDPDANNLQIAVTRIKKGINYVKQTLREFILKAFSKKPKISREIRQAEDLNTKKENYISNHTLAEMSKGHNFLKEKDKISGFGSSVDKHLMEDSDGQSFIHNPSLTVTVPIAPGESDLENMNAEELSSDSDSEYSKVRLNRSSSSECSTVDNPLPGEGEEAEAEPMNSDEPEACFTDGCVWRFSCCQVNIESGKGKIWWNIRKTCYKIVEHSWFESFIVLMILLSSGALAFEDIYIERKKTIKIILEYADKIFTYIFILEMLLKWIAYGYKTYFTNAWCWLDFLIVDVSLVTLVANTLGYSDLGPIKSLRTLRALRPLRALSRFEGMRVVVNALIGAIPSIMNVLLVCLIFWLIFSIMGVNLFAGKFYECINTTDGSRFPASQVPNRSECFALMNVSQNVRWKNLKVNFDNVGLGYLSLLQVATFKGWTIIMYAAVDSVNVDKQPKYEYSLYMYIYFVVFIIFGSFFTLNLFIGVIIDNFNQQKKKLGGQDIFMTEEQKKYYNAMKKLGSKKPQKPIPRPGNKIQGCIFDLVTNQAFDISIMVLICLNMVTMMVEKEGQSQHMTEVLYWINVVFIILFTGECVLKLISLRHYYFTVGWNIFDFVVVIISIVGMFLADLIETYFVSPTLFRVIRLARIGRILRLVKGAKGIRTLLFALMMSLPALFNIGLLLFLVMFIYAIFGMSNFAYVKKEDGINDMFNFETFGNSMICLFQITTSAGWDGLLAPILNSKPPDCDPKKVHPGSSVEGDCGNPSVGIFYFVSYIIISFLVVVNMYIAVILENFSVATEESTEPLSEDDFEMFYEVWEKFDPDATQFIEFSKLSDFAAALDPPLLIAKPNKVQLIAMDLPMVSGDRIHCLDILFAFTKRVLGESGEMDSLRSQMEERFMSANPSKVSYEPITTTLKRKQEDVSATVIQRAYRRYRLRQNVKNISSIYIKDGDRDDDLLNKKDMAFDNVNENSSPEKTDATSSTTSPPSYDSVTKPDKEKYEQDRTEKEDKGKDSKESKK
Sequence of human Nav 1.5 (Q14524 whole entry): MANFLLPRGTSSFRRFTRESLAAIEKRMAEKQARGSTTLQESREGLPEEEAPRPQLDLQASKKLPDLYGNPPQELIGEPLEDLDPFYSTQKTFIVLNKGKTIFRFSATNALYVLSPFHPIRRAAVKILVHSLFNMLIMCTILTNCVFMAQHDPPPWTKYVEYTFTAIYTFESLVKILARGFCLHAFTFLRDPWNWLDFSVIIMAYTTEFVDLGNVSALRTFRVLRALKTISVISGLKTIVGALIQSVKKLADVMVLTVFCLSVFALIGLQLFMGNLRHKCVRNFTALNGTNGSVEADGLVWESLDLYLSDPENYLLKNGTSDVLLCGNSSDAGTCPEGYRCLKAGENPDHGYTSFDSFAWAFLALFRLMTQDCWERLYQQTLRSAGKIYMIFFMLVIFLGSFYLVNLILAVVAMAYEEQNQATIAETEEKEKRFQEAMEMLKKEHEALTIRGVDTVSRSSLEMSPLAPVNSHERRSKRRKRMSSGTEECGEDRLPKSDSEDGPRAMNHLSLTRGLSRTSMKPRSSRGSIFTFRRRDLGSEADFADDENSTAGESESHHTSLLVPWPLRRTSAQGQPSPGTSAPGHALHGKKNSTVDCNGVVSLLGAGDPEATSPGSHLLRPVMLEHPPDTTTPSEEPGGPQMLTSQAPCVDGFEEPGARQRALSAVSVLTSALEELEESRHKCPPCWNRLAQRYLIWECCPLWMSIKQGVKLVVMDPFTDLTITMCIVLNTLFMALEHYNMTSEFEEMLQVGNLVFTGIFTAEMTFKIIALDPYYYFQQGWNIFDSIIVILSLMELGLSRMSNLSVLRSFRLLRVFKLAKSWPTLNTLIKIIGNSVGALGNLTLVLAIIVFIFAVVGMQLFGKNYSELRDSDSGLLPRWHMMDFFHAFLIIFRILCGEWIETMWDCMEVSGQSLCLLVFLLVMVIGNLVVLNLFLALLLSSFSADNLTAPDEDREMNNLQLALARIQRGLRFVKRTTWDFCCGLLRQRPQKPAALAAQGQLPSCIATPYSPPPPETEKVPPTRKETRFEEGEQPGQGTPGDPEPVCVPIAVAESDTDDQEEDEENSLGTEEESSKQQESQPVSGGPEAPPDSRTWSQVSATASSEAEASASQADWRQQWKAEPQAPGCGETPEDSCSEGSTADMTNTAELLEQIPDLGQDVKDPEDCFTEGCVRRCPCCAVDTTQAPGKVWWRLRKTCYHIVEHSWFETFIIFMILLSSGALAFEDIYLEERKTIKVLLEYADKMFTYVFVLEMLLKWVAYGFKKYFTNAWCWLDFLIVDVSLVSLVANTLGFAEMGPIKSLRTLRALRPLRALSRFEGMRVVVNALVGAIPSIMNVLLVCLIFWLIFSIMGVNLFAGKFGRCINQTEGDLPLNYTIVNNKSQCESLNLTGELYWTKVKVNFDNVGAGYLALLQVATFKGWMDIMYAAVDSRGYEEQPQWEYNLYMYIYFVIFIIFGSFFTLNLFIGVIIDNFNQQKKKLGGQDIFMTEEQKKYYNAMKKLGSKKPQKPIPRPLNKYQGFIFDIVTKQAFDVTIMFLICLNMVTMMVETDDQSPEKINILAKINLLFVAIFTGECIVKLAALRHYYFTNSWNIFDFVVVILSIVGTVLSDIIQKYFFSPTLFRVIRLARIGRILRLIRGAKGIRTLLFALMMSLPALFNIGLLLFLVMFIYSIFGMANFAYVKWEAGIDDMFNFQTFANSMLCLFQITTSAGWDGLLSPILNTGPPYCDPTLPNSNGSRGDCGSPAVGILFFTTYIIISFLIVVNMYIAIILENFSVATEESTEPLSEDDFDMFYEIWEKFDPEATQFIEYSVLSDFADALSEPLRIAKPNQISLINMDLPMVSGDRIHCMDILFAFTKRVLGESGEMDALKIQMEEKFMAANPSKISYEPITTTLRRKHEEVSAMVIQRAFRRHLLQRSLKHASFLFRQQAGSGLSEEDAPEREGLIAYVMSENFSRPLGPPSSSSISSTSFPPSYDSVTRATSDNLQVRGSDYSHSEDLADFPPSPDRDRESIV
Protocol for human Nav1.7: HEK 293 cells stably transfected with human Nav1.7 were recorded in whole cell voltage clamp mode with the PatchXpress automated electrophysiology system (Molecular Devices, LLC, Sunnyvale, Calif.). Compound effects were measured on a partially inactivated state of the sodium channel. Cells were clamped to a holding potential yielding 20 to 50% inactivation. To elicit sodium current, channels were activated by pulsing to −10 mV for 20 msec. This voltage protocol was repeated at a rate of 0.1 Hz throughout the experiment. A single concentration of test compound was applied to cells for a duration of 3 minutes. Peak sodium current was measured at the end of the compound addition period to determine percent inhibition. Three to five cells were tested per concentration, and IC50 curves were fitted to percent inhibition as a function of concentration.

With `Cc1cc(Cl)ccc1COc1ncc(-c2cc(F)c(C(=O)NS(C)(=O)=O)cc2C)cc1Cl` [Example 681, 4-(5-chloro-6-((4-chloro-2-methylbenzyl)oxy)-3-pyridinyl)-2-fluoro-5-methyl-N-(methylsulfonyl)benzamide], the half-maximal inhibitory concentration (IC50) (as a rule, the concentration that gives 50% inhibition) at human Nav 1.5 (read-out: NAV 1.5 IWQ IC50) is more than 4900 nM; against human Nav1.7, 98.6 nM.
In the case of `Cc1ccc(Oc2ncc(-c3cc(F)c(C(=O)NS(C)(=O)=O)cc3C)cc2Cl)cc1F` [Example 623, 4-(5-chloro-6-(3-fluoro-4-methylphenoxy)-3-pyridinyl)-2-fluoro-5-methyl-N-(methylsulfonyl)benzamide], the IC50 on human Nav 1.5 was 4840 nM; at human Nav1.7 it was 48.5 nM.
In the case of `CNS(=O)(=O)NC(=O)c1ccc(-c2cnc(Oc3cc(Cl)cc(Cl)c3)c(Cl)c2)c(OC)c1` [Example 772, 4-(5-Chloro-6-(3,5-Dichlorophenoxy)Pyridin-3-yl)-3-Methoxy-N—(N-Methylsulfamoyl)Benzamide], the IC50 at human Nav 1.5 (setting [1]) was more than 3000 nM; against human Nav1.7 (in-vitro Nav 1.7 PX data), 80.7 nM.
Turning to `CC[C@@H](Oc1ncc(-c2cc(F)c(C(=O)NS(C)(=O)=O)cc2Cl)cc1Cl)c1ccc(F)cc1` [Example 596, 5-chloro-4-(5-chloro-6-(((1R)-1-(4-fluorophenyl)propyl)oxy)-3-pyridinyl)-2-fluoro-N-(methylsulfonyl)benzamide, 5-chloro-4-(5-chloro-6-(((1S)-1-(4-fluorophenyl)propyl)oxy)-3-pyridinyl)-2-fluoro-N-(methylsulfonyl)benzamide], the IC50 on human Nav 1.5 (read-out: NAV 1.5 IWQ IC50) is more than 3000 nM; at human Nav1.7 it was 87.9 nM.
Regarding `Cc1cc(C(=O)NS(C)(=O)=O)c(F)cc1-c1cnc(Oc2ccc(Cl)c3ccccc23)c(Cl)c1` [Example 613, 4-(5-chloro-6-((4-chloro-1-naphthalenyl)oxy)-3-pyridinyl)-2-fluoro-5-methyl-N-(methylsulfonyl)benzamide], the 50% inhibitory concentration (IC50) is more than 3000 nM on human Nav 1.5 (read-out: NAV 1.5 IWQ IC50) and 92.7 nM against human Nav1.7.
For `Cc1cc(C(=O)NS(C)(=O)=O)c(F)cc1-c1cnc(Oc2ccc(F)c(F)c2F)c(Cl)c1` [Example 615, 4-(5-chloro-6-(2,3,4-trifluorophenoxy)-3-pyridinyl)-2-fluoro-5-methyl-N-(methylsulfonyl)benzamide], the IC50 at human Nav 1.5 (read-out: NAV 1.5 IWQ IC50) was more than 3000 nM; on human Nav1.7 it was 75.2 nM.
For the compound `CCCS(=O)(=O)NC(=O)c1cc(C)c(-c2cnc(OC3CCC3)c(Cl)c2)cc1F` [Example 796, 4-(5-chloro-6-(cyclobutyloxy)-3-pyridinyl)-2-fluoro-5-methyl-N-(propylsulfonyl)benzamide], the values for the concentration for half-maximal inhibition (IC50) on human Nav 1.5 (setting [1]) and on human Nav1.7 (in-vitro Nav 1.7 PX data) were 9310 nM and 110 nM, respectively.
Consider `Cc1cc(C(=O)NS(C)(=O)=O)c(F)cc1-c1cnc(Oc2cc(Cl)c(Cl)cc2Cl)c(Cl)c1` [Example 667, 4-(5-chloro-6-(2,4,5-trichlorophenoxy)-3-pyridinyl)-2-fluoro-5-methyl-N-(methylsulfonyl)benzamide], for which the figures for the 50% inhibitory concentration (IC50) at human Nav 1.5 (read-out: NAV 1.5 IWQ IC50) and at human Nav1.7 were 7450 nM and 50.5 nM, respectively.
For `CC(C)[C@@H](Oc1ncc(-c2cc(F)c(C(=O)NS(C)(=O)=O)cc2Cl)cc1Cl)c1ccccc1` [Example 594, 5-chloro-4-(5-chloro-6-(((1R)-2-methyl-1-phenylpropyl)oxy)-3-pyridinyl)-2-fluoro-N-(methylsulfonyl)benzamide, 5-chloro-4-(5-chloro-6-(((1S)-2-methyl-1-phenylpropyl)oxy)-3-pyridinyl)-2-fluoro-N-(methylsulfonyl)benzamide], the figures for the IC50 at human Nav 1.5 (read-out: NAV 1.5 IWQ IC50) and against human Nav1.7 were more than 3000 nM and 48.8 nM, respectively.
For `COc1cc(C(=O)NS(C)(=O)=O)c(F)cc1-c1cnc(Oc2cc(Cl)cc(Cl)c2)c(Cl)c1` [Example 695, 4-(5-chloro-6-(3,5-dichlorophenoxy)-3-pyridinyl)-2-fluoro-5-methoxy-N-(methylsulfonyl)benzamide], the IC50 at human Nav 1.5 (read-out: NAV 1.5 IWQ IC50) was more than 3000 nM; on human Nav1.7, 52.4 nM.
For `Cc1cc(C(=O)NS(C)(=O)=O)c(F)cc1-c1cnc(Oc2c(C)cc(Cl)cc2C)c(Cl)c1` [Example 669, 4-(5-chloro-6-(4-chloro-2,6-dimethylphenoxy)-3-pyridinyl)-2-fluoro-5-methyl-N-(methylsulfonyl)benzamide], the IC50 at human Nav 1.5 (read-out: NAV 1.5 IWQ IC50) came to 3610 nM; on human Nav1.7 it was 66 nM.
For `COc1cc(C(=O)NS(C)(=O)=O)ccc1-c1cnc(Oc2cc(Cl)cc(Cl)c2)c(Cl)c1` [Example 348, 4-(5-chloro-6-(3,5-dichlorophenoxy)-3-pyridinyl)-3-methoxy-N-(methylsulfonyl)benzamide], the IC50 came to 5740 nM on human Nav 1.5 (read-out: NAV 1.5 IWQ IC50) and 34.5 nM against human Nav1.7.
As to `Cc1ccc(Oc2ncc(-c3cc(F)c(C(=O)NS(C)(=O)=O)cc3Cl)cc2Cl)cc1F` [Example 591, 5-chloro-4-(5-chloro-6-(3-fluoro-4-methylphenoxy)-3-pyridinyl)-2-fluoro-N-(methylsulfonyl)benzamide], the IC50 at human Nav 1.5 (read-out: NAV 1.5 IWQ IC50) was more than 3000 nM; at human Nav1.7, 85.6 nM.
In the case of `Cc1cc(C(=O)NS(C)(=O)=O)c(F)cc1-c1cnc(Oc2cccc(Cl)c2F)c(Cl)c1` [Example 619, 4-(5-chloro-6-(3-chloro-2-fluorophenoxy)-3-pyridinyl)-2-fluoro-5-methyl-N-(methylsulfonyl)benzamide], the IC50 at human Nav 1.5 (read-out: NAV 1.5 IWQ IC50) is more than 3000 nM; against human Nav1.7, 93.7 nM.
In the same order, the values of `Cc1cc(Cl)cc(Cl)c1Oc1ncc(-c2cc(F)c(C(=O)NS(C)(=O)=O)cc2F)cc1Br` [Example 575, 4-(5-bromo-6-(2,4-dichloro-6-methylphenoxy)-3-pyridinyl)-2,5-difluoro-N-(methylsulfonyl)benzamide] are more than 4900 nM and 42.4 nM.
Regarding `Cc1cc(C(=O)NS(C)(=O)=O)c(F)cc1-c1cnc(Oc2cc(C(F)(F)F)ccc2Cl)c(Cl)c1` [Example 642, 4-(5-chloro-6-(2-chloro-5-(trifluoromethyl)phenoxy)-3-pyridinyl)-2-fluoro-5-methyl-N-(methylsulfonyl)benzamide], the IC50 at human Nav 1.5 (read-out: NAV 1.5 IWQ IC50) is more than 3000 nM; against human Nav1.7, 70.5 nM.
Turning to `Cc1cc(C(=O)NS(C)(=O)=O)c(F)cc1-c1cnc(O[C@H]2C[C@H]3CC[C@@H]2C3)c(Cl)c1` [Example 635, 4-(6-((1R,2S,4S)-bicyclo[2.2.1]hept-2-yloxy)-5-chloro-3-pyridinyl)-2-fluoro-5-methyl-N-(methylsulfonyl)benzamide], the IC50 on human Nav 1.5 (read-out: NAV 1.5 IWQ IC50) was more than 3000 nM; against human Nav1.7, 80.9 nM.
In the same order, the values of `CC[C@@H](Oc1ncc(-c2cc(F)c(C(=O)NS(C)(=O)=O)cc2C)cc1Cl)c1ccc(Cl)cc1` [Example 640, 4-(5-chloro-6-(((1R)-1-(4-chlorophenyl)propyl)oxy)-3-pyridinyl)-2-fluoro-5-methyl-N-(methylsulfonyl)benzamide, 4-(5-chloro-6-(((1S)-1-(4-chlorophenyl)propyl)oxy)-3-pyridinyl)-2-fluoro-5-methyl-N-(methylsulfonyl)benzamide] are more than 3000 nM and 90.8 nM.
In the case of `Cc1cc(C(=O)NS(C)(=O)=O)c(F)cc1-c1cnc(Oc2ccc(F)c3c2CCC3)c(Cl)c1` [Example 672, 4-(5-chloro-6-((7-fluoro-2,3-dihydro-1H-inden-4-yl)oxy)-3-pyridinyl)-2-fluoro-5-methyl-N-(methylsulfonyl)benzamide], the IC50 on human Nav 1.5 (read-out: NAV 1.5 IWQ IC50) is more than 10000 nM; on human Nav1.7 it was 67.5 nM.
In the same order, the values of `Cc1cc(C(=O)NS(C)(=O)=O)c(F)cc1-c1cnc(Oc2cccc(Br)c2)c(Cl)c1` [Example 607, 4-(6-(3-bromophenoxy)-5-chloro-3-pyridinyl)-2-fluoro-5-methyl-N-(methylsulfonyl)benzamide] are more than 3000 nM and 68.2 nM.
Consider `Cc1cc(C(=O)NS(C)(=O)=O)c(F)cc1-c1cnc(Oc2ccc(Cl)cc2Cl)c(Cl)c1` [Example 665, 4-(5-chloro-6-(2,4-dichlorophenoxy)-3-pyridinyl)-2-fluoro-5-methyl-N-(methylsulfonyl)benzamide], for which the values for the IC50 on human Nav 1.5 (read-out: NAV 1.5 IWQ IC50) and at human Nav1.7 were 4680 nM and 35.7 nM, respectively.
As for `CCOc1ccc(Oc2ncc(-c3cc(F)c(C(=O)NS(C)(=O)=O)cc3C)cc2Cl)cc1F` [Example 645, 4-(5-chloro-6-(4-ethoxy-3-fluorophenoxy)-3-pyridinyl)-2-fluoro-5-methyl-N-(methylsulfonyl)benzamide], the IC50 is more than 3000 nM at human Nav 1.5 (read-out: NAV 1.5 IWQ IC50) and 97.3 nM against human Nav1.7.
With `COc1cc(C(=O)NS(C)(=O)=O)ccc1-c1cnc(OCc2ccc(Cl)cc2)c(Cl)c1` [Example 576, 4-(5-chloro-6-((4-chlorobenzyl)oxy)-3-pyridinyl)-3-methoxy-N-(methylsulfonyl)benzamide], the IC50 was more than 3000 nM on human Nav 1.5 and 70 nM against human Nav1.7.
With `Cc1cc(Cl)c(Oc2ncc(-c3cc(F)c(C(=O)NS(C)(=O)=O)cc3C)cc2Cl)cc1C` [Example 632, 4-(5-chloro-6-(2-chloro-4,5-dimethylphenoxy)-3-pyridinyl)-2-fluoro-5-methyl-N-(methylsulfonyl)benzamide], the IC50 at human Nav 1.5 (read-out: NAV 1.5 IWQ IC50) is more than 3000 nM; at human Nav1.7 it was 81.5 nM.
As to `COc1cc(C(=O)NS(C)(=O)=O)c(F)cc1-c1cnc(Oc2ccc(C)c(F)c2)c(Cl)c1` [Example 698, 4-(5-chloro-6-(3-fluoro-4-methylphenoxy)-3-pyridinyl)-2-fluoro-5-methoxy-N-(methylsulfonyl)benzamide], the values for the IC50 at human Nav 1.5 (read-out: NAV 1.5 IWQ IC50) and against human Nav1.7 were 6050 nM and 59 nM, respectively.
`CC[C@@H](Oc1ncc(-c2cc(F)c(C(=O)NS(C)(=O)=O)cc2C)cc1Cl)c1ccc(F)cc1` [Example 650, 4-(5-chloro-6-(((1R)-1-(4-fluorophenyl)propyl)oxy)-3-pyridinyl)-2-fluoro-5-methyl-N-(methylsulfonyl)benzamide]: the IC50 at human Nav 1.5 (read-out: NAV 1.5 IWQ IC50) was more than 3000 nM; on human Nav1.7 it was 78.7 nM.
For the compound `CC[C@H](Cc1ccccc1)Oc1ncc(-c2cc(F)c(C(=O)NS(C)(=O)=O)cc2Cl)cc1Cl` [Example 593, 4-(6-(((1R)-1-benzylpropyl)oxy)-5-chloro-3-pyridinyl)-5-chloro-2-fluoro-N-(methylsulfonyl)benzamide, 4-(6-(((1S)-1-benzylpropyl)oxy)-5-chloro-3-pyridinyl)-5-chloro-2-fluoro-N-(methylsulfonyl)benzamide], the values for the IC50 on human Nav 1.5 (read-out: NAV 1.5 IWQ IC50) and against human Nav1.7 were more than 3000 nM and 97.4 nM, respectively.
